Data on 35 molecules can be found in patent publication US10202360B2 (CELGENE QUANTICEL RESEARCH, INC., priority 2016, dated 2019).

The assay addresses CREBBP (Homo sapiens (Human), UniProt Q92793). The experiment in a line: In vitro enzyme inhibition assay - CREBBP inhibition (AlphaScreen, biotinylated H4-tetraacetyl peptide). The conditions noted are these: Table 28; AlphaScreen, H4-tetraacetyl peptide. Type of assay: binding. A digest of the protocol: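 Displacement of 20 nM biotinylated tetraacetyl-H4 peptide from 50 nM E. coli-expressed His-CREBBP, measured by AlphaScreen after bead equilibration for 2 h.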

Chain of CREBBP (Q92793 1081-1197): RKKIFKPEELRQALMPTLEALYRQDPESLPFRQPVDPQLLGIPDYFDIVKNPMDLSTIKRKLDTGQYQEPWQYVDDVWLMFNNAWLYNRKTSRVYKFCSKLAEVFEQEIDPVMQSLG

`Cc1cccc(Cl)c1Oc1nc(NCCC(C)C)cc(-c2ccc(=O)n(C)c2)n1` [Example 315, 5-[2-(2-Chloro-6-methyl-phenoxy)-6-(3-methyl-butylamino)-pyrimidin-4-yl]-1-methyl-1H-pyridin-2-one] had an IC50 of less than 500 nM. Molecule `CCCCNc1cc(-c2ccc(=O)n(C)c2)nc(Oc2c(C)cccc2C#N)n1` [Example 316, 2-[4-Butylamino-6-(1-methyl-6-oxo-1,6-dihydro-pyridin-3-yl)-pyrimidin-2-yloxy]-3-methyl-benzonitrile] had an IC50 of less than 500 nM. Then `CCC[C@@H](C)Nc1cc(-c2ccc(=O)n(C)c2)nc(Oc2c(C)cccc2C#N)n1` [Example 317, (R)-3-Methyl-2-[4-(1-methyl-butylamino)-6-(1-methyl-6-oxo-1,6-dihydro-pyridin-3-yl)-pyrimidin-2-yloxy]-benzonitrile], with less than 500 nM; and `Cc1cccc(C#N)c1Oc1nc(N[C@H](C)c2ccccc2)cc(-c2ccc(=O)n(C)c2)n1` [Example 318, (R)-3-Methyl-2-[4-(1-methyl-6-oxo-1,6-dihydro-pyridin-3-yl)-6-(1-phenyl-ethylamino)-pyrimidin-2-yloxy]-benzonitrile], with less than 500 nM; and `Cc1cccc(C#N)c1Oc1nc(NCc2ccccn2)cc(-c2ccc(=O)n(C)c2)n1` [Example 319, 3-Methyl-2-{4-(1-methyl-6-oxo-1,6-dihydro-pyridin-3-yl)-6-[(pyridin-2-ylmethyl)-amino]-pyrimidin-2-yloxy}-benzonitrile], with less than 500 nM.

In turn, `Cc1cccc(C#N)c1Oc1nc(NCc2ccccc2)cc(-c2ccc(=O)n(C)c2)n1` [Example 320, 2-[4-Benzylamino-6-(1-methyl-6-oxo-1,6-dihydro-pyridin-3-yl)-pyrimidin-2-yloxy]-3-methyl-benzonitrile] showed an IC50 of less than 500 nM.

In turn, `CCC[C@H](C)Nc1cc(-c2ccc(=O)n(C)c2)nc(Oc2c(C)cccc2C#N)n1` [Example 321, (S)-3-Methyl-2-[4-(1-methyl-butylamino)-6-(1-methyl-6-oxo-1,6-dihydro-pyridin-3-yl)-pyrimidin-2-yloxy]-benzonitrile] yielded an IC50 of less than 500 nM. `Cc1cccc(C#N)c1Oc1nc(N[C@@H](C)c2ccccc2)cc(-c2ccc(=O)n(C)c2)n1` [Example 322, (S)-3-Methyl-2-[4-(1-methyl-6-oxo-1,6-dihydro-pyridin-3-yl)-6-(1-phenyl-ethylamino)-pyrimidin-2-yloxy]-benzonitrile]: the 50% inhibitory concentration (IC50) was less than 500 nM. The same measure for `Cc1cccc(C#N)c1Oc1nc(NCc2cccnc2)cc(-c2ccc(=O)n(C)c2)n1` [Example 323, 3-Methyl-2-{4-(1-methyl-6-oxo-1,6-dihydro-pyridin-3-yl)-6-[(pyridin-3-ylmethyl)-amino]-pyrimidin-2-yloxy}-benzonitrile]: less than 500 nM; for `COc1nc(NCc2ccccc2)cc(-c2ccc(=O)n(C)c2)n1` [Example 324, 5-(6-Benzylamino-2-methoxy-pyrimidin-4-yl)-1-methyl-1H-pyridin-2-one]: less than 500 nM. The same measure for `CCCCNc1cc(-c2ccc(=O)n(C)c2)nc(OC)n1` [Example 325, 5-(6-Butylamino-2-methoxy-pyrimidin-4-yl)-1-methyl-1H-pyridin-2-one]: 500 to 5000 nM. For the molecule `CCCC(C)Nc1cc(-c2ccc(=O)n(C)c2)nc(OC)n1` (centres unmarked) [Example 326, 5-[2-Methoxy-6-(1-methyl-butylamino)-pyrimidin-4-yl]-1-methyl-1H-pyridin-2-one], the half-maximal inhibitory concentration (IC50) is 500 to 5000 nM. The same measure for `COc1nc(NC(C)c2ccccc2)cc(-c2ccc(=O)n(C)c2)n1` (centres unmarked) [Example 327, 5-[2-Methoxy-6-(1-phenyl-ethylamino)-pyrimidin-4-yl]-1-methyl-1H-pyridin-2-one]: less than 500 nM; for `COc1nc(NCc2ccccn2)cc(-c2ccc(=O)n(C)c2)n1` [Example 328, 5-{2-Methoxy-6-[(pyridin-2-ylmethyl)-amino]-pyrimidin-4-yl}-1-methyl-1H-pyridin-2-one]: less than 500 nM. Then `COc1nc(NCCc2ccccc2)cc(-c2ccc(=O)n(C)c2)n1` [Example 329, 5-(2-Methoxy-6-phenethylamino-pyrimidin-4-yl)-1-methyl-1H-pyridin-2-one], with less than 500 nM. Then `COc1nc(NCc2cccnc2)cc(-c2ccc(=O)n(C)c2)n1` [Example 330, 5-{2-Methoxy-6-[(pyridin-3-ylmethyl)-amino]-pyrimidin-4-yl}-1-methyl-1H-pyridin-2-one], with less than 500 nM; and `COc1nc(NCC2CCCc3ccccc32)cc(-c2ccc(=O)n(C)c2)n1` (centres unmarked) [Example 331, 5-{2-Methoxy-6-[(1,2,3,4-tetrahydro-naphthalen-1-ylmethyl)-amino]-pyrimidin-4-yl}-1-methyl-1H-pyridin-2-one], with less than 500 nM.

On to `Cc1cccc(F)c1Oc1nc(N)cc(-c2ccc(=O)n(C)c2)n1` [Example 332, 5-[6-Amino-2-(2-fluoro-6-methyl-phenoxy)-pyrimidin-4-yl]-1-methyl-1H-pyridin-2-one], for which the IC50 was less than 500 nM. Molecule `Cc1cccc(Cl)c1Oc1nc(N)cc(-c2ccc(=O)n(C)c2)n1` [Example 333, 5-[6-Amino-2-(2-chloro-6-methyl-phenoxy)-pyrimidin-4-yl]-1-methyl-1H-pyridin-2-one] showed an IC50 of less than 500 nM. Then `Cc1cccc(Cl)c1Oc1nc(N)cc(-c2cc(C)c(=O)n(C)c2)n1` [Example 334, 5-[6-Amino-2-(2-chloro-6-methyl-phenoxy)-pyrimidin-4-yl]-1,3-dimethyl-1H-pyridin-2-one], with less than 500 nM; and `Cc1cccc(C)c1Oc1nc(C#N)cc(-c2cc(C)c(=O)n(C)c2)n1` [Example 335, 6-(1,5-dimethyl-6-oxo(3-hydropyridyl))-2-(2,6-dimethylphenoxy)pyrimidine-4-carbonitrile], with less than 500 nM; and `CCCS(=O)(=O)Nc1cc(-c2cc(C)c(=O)n(C)c2)nn1C` [Example 336, Propane-1-sulfonic acid [5-(1,5-dimethyl-6-oxo-1,6-dihydro-pyridin-3-yl)-2-methyl-2H-pyrazol-3-yl]-amide], with 500 to 5000 nM. The same measure for `CCCCS(=O)(=O)Nc1cc(-c2ccc(=O)n(C)c2)nc(Oc2c(F)cccc2CC)n1` [Example 337, N-(2-(2-ethyl-6-fluorophenoxy)-6-(1-methyl-6-oxo-1,6-dihydropyridin-3-yl)pyrimidin-4-yl)butane-1-sulfonamide]: less than 500 nM; for `CCc1cccc(F)c1Oc1nc(NS(=O)(=O)C(C)CC)cc(-c2ccc(=O)n(C)c2)n1` (centres unmarked) [Example 338, N-(2-(2-ethyl-6-fluorophenoxy)-6-(1-methyl-6-oxo-1,6-dihydropyridin-3-yl)pyrimidin-4-yl)butane-2-sulfonamide]: less than 500 nM. In turn, `CCCS(=O)(=O)Nc1cc(-c2ccc(=O)n(C)c2)nc(Oc2c(F)cccc2CC)n1` [Example 339, N-(2-(2-ethyl-6-fluorophenoxy)-6-(1-methyl-6-oxo-1,6-dihydropyridin-3-yl)pyrimidin-4-yl)propane-1-sulfonamide] had an IC50 of less than 500 nM. Consider `CC(C)S(=O)(=O)Nc1cc(-c2ccc(=O)n(C)c2)nc(Oc2c(F)cccc2F)n1` [Example 340, N-(2-(2,6-difluorophenoxy)-6-(1-methyl-6-oxo-1,6-dihydropyridin-3-yl)pyrimidin-4-yl)propane-2-sulfonamide], for which the IC50 is less than 500 nM. Molecule `CCCS(=O)(=O)Nc1cc(-c2ccc(=O)n(C)c2)nc(Oc2c(F)cccc2F)n1` [Example 341, N-(2-(2,6-difluorophenoxy)-6-(1-methyl-6-oxo-1,6-dihydropyridin-3-yl)pyrimidin-4-yl)propane-1-sulfonamide] gave an IC50 of less than 500 nM. Then `CCCCS(=O)(=O)Nc1cc(-c2ccc(=O)n(C)c2)nc(Oc2c(F)cccc2F)n1` [Example 342, N-(2-(2,6-difluorophenoxy)-6-(1-methyl-6-oxo-1,6-dihydropyridin-3-yl)pyrimidin-4-yl)butane-1-sulfonamide], with less than 500 nM; and `CCCCS(=O)(=O)Nc1cc(-c2ccc(=O)n(C)c2)nc(Oc2c(C)cc(F)cc2F)n1` [Example 343, N-(2-(2,4-difluoro-6-methylphenoxy)-6-(1-methyl-6-oxo-1,6-dihydropyridin-3-yl)pyrimidin-4-yl)butane-1-sulfonamide], with less than 500 nM; and `CCCS(=O)(=O)Nc1cc(-c2ccc(=O)n(C)c2)nc(Oc2c(C)cc(F)cc2F)n1` [Example 344, N-(2-(2,4-difluoro-6-methylphenoxy)-6-(1-methyl-6-oxo-1,6-dihydropyridin-3-yl)pyrimidin-4-yl)propane-1-sulfonamide], with less than 500 nM. The same measure for `CCC(C)S(=O)(=O)Nc1cc(-c2ccc(=O)n(C)c2)nc(Oc2c(C)cc(F)cc2F)n1` (centres unmarked) [Example 345, N-(2-(2,4-difluoro-6-methylphenoxy)-6-(1-methyl-6-oxo-1,6-dihydropyridin-3-yl)pyrimidin-4-yl)butane-2-sulfonamide]: less than 500 nM; for `Cc1cc(F)cc(F)c1Oc1nc(NS(=O)(=O)C(C)C)cc(-c2ccc(=O)n(C)c2)n1` [Example 346, N-(2-(2,4-difluoro-6-methylphenoxy)-6-(1-methyl-6-oxo-1,6-dihydropyridin-3-yl)pyrimidin-4-yl)propane-2-sulfonamide]: less than 500 nM; for `CCCCS(=O)(=O)Nc1cc(-c2ccc(=O)n(C)c2)nc(Oc2c(C)ccc(F)c2F)n1` [Example 347, N-(2-(2,3-difluoro-6-methylphenoxy)-6-(1-methyl-6-oxo-1,6-dihydropyridin-3-yl)pyrimidin-4-yl)butane-1-sulfonamide]: less than 500 nM. Then `CCCS(=O)(=O)Nc1cc(-c2ccc(=O)n(C)c2)nc(Oc2c(C)ccc(F)c2F)n1` [Example 348, N-(2-(2,3-difluoro-6-methylphenoxy)-6-(1-methyl-6-oxo-1,6-dihydropyridin-3-yl)pyrimidin-4-yl)propane-1-sulfonamide], with less than 500 nM; and `CCC(C)S(=O)(=O)Nc1cc(-c2ccc(=O)n(C)c2)nc(Oc2c(C)ccc(F)c2F)n1` (centres unmarked) [Example 349, N-(2-(2,3-difluoro-6-methylphenoxy)-6-(1-methyl-6-oxo-1,6-dihydropyridin-3-yl)pyrimidin-4-yl)butane-2-sulfonamide], with less than 500 nM.
